Where two headings read alike, the source gives them in different places.
Columns and labels:
potato variety Caesar [1] = experiment: Cultivation emergence (germination) in potato field trial; assay type: in vivo, potato (Solanum tuberosum); conditions: 22 days after seeding, plants emerged in central furrows
Text: (§1) The seeding was made on June 10. The potato variety used was Caesar, third-category tubercles were used. A soil application was made to all the treatments when fluoxastrobin fungicides were applied; 2-litters dose or commercial product per hectare, and penfuflen 0.650 litters dose per hectare; in order to prevent Fusarium spp. and/or Rhizoctoniasolani fungus attack. The experimental design used was random blocks with four repetitions; the experimental parcel was formed by four furrows at a distance between furrows of 0.92 m, and 10 meters length. The useful parcel consisted in two central furrows of each experimental parcel. Distance between plants was 0.25 m.
(§2) The applied treatments consisted in an application on the bottom of the furrow when the seeding was taking place, and eleven foliar applications.
Emergence: Cultivation emergence was determined; for which the number of plants that emerged in each parcel central furrows was counted at 100% emergence. The data were collected on Jul. 2, 2014 (22 days after seeding).

Bactericera cockerelli = Bactericera cockerelli population dynamic (adults, nymphs, eggs) in potato field trial; assay type: in vivo; conditions: for average of registered adults: B. cockerelli adults, four-repetitions average; for B. Cokerelli eggs population average / Average of registered B.cokerelli nymphs: average of four repetitions
Text: as §1, §2
Bactericera cockerelli, Population Dynamic: Studies on adult psilides, nymphs and eggs were population dynamic were made. For which purpose a count was made before the first foliar application and subsequently after each treatment application. To know the number of adults 20 net traps (with entomologic net) per experimental parcel, in each evaluation. To determine the number of eggs and nymphs, 50 pinnas were evaluated per parcel in each evaluation.

[2] = test system: Zebra chip/purple top (Candidatus Liberibacter solanacearum / Candidatus Phytoplasma americanum); assay type: in vivo; conditions: relative to untreated treatment 1
potato variety Caesar [3] = experiment: Potato tubercle production at harvest; assay type: in vivo, potato (Solanum tuberosum); conditions: for Total production in Kilograms per parcel, Average: all categories, harvest; for Production in Kilograms per treatment categories: Combined: combined quality category; for Production in Kilograms per treatment categories: First: first quality category; for Production in Kilograms per treatment categories: Third: third quality category
Text: as §1, §2
Production: In harvest, each treatment production was analyzed, for which two lineal meters were harvested of each experimental parcel central furrows, registering the potato tubercles production for each of the four categories (first, second, third and combined).

[4] = test system: Zebra chip/purple top (Candidatus Liberibacter solanacearum); assay type: in vivo; conditions: cross cut tubercles, relative to untreated
[5] = test system: Zebra chip (Candidatus Liberibacter solanacearum); assay type: in vivo; conditions: fried slices, under heading Flake Burning Severity

With `N#Cc1ccccc1NC(=O)c1snc(Cl)c1Cl` [Treatment 3, Isotianil] the “Emergence Percentage” value (potato variety Caesar [1]; listed as 3) was 61.2%, the “average of registered adults” value (Bactericera cockerelli; 02-Sep., listed as T3) was 1.75 and the “average of registered adults” value (Bactericera cockerelli; 5-Aug., 20 net traps per parcel, listed as T3) was 1. For the same molecule, the “average of registered adults” value (Bactericera cockerelli; 08-sep., listed as T3) was 0.5, the “average of registered adults” value (Bactericera cockerelli; 12-Aug., listed as T3) was 1.25 and the “average of registered adults” value (Bactericera cockerelli; 18-Aug., listed as T3) was 3.75. For the same molecule, the “average of registered adults” value (Bactericera cockerelli; 19-Sep., listed as T3) was 4.75, the “B. Cokerelli eggs population average” value (Bactericera cockerelli; 08-sep., listed as T3) was 1.25 and the “B. Cokerelli eggs population average” value (Bactericera cockerelli; 12-August, listed as T3) was 1.5. The “Average of registered B.cokerelli nymphs” value (Bactericera cockerelli; 02-Sep., listed as T3) was 4.5, the “Average of registered B.cokerelli nymphs” value (Bactericera cockerelli; 08-sep., listed as T3) was 3 and the “Average of registered B.cokerelli nymphs” value (Bactericera cockerelli; 12-Aug., listed as T3) was 0. The “Average of registered B.cokerelli nymphs” value (Bactericera cockerelli; 18-Aug., listed as T3) was 0, the “Zebra chip/purple top incidence control percentage” value ([2]; listed as 3) was 14.35% and the “Total production in Kilograms per parcel, Average” value (potato variety Caesar [3]; listed as 3) was 17.975 Kilograms per parcel. The “Production in Kilograms per treatment categories: Combined” value (potato variety Caesar [3]; listed as 3) was 39.8 Kilograms, the “Production in Kilograms per treatment categories: First” value (potato variety Caesar [3]; listed as 3) was 0 Kilograms and the “Production in Kilograms per treatment categories: Third” value (potato variety Caesar [3]; listed as 3) was 24.3 Kilograms. The “tubercle staining Incidence Control Percentage” value ([4]; listed as 3) was 35.01%, the “tubercle staining Severity Control Percentage” value ([4]; listed as 3) was 43.13% and the “Flake burning Incidence control percentage” value ([5]; listed as 3) was 31.3%.
`N#Cc1ccccc1NC(=O)c1snc(Cl)c1Cl` [Treatment 4, Isotianil] was tested, and the “Emergence Percentage” value (potato variety Caesar [1]; listed as 4) was 71.8%, the “average of registered adults” value (Bactericera cockerelli; 02-Sep., listed as T4) was 0.25 and the “average of registered adults” value (Bactericera cockerelli; 5-Aug., 20 net traps per parcel, listed as T4) was 0.75. For the same molecule, the “average of registered adults” value (Bactericera cockerelli; 08-sep., listed as T4) was 0, the “average of registered adults” value (Bactericera cockerelli; 12-Aug., listed as T4) was 2 and the “average of registered adults” value (Bactericera cockerelli; 18-Aug., listed as T4) was 1. For the same molecule, the “average of registered adults” value (Bactericera cockerelli; 19-Sep., listed as T4) was 2.75, the “B. Cokerelli eggs population average” value (Bactericera cockerelli; 02-Sep.) was 0 and the “B. Cokerelli eggs population average” value (Bactericera cockerelli; 5-August, 50 pinnas per parcel) was 0. The “B. Cokerelli eggs population average” value (Bactericera cockerelli; 08-sep., listed as T4) was 0.75, the “B. Cokerelli eggs population average” value (Bactericera cockerelli; 12-August, listed as T4) was 4.5 and the “B. Cokerelli eggs population average” value (Bactericera cockerelli; 18-August) was 0. For the same molecule, the “B. Cokerelli eggs population average” value (Bactericera cockerelli; 19-Sep.) was 0, the “Average of registered B.cokerelli nymphs” value (Bactericera cockerelli; 02-Sep., listed as T4) was 13.75 and the “Average of registered B.cokerelli nymphs” value (Bactericera cockerelli; 5-Aug., 50 pinnas per parcel) was 0. The “Average of registered B.cokerelli nymphs” value (Bactericera cockerelli; 08-sep., listed as T4) was 0, the “Average of registered B.cokerelli nymphs” value (Bactericera cockerelli; 12-Aug., listed as T4) was 2.25 and the “Average of registered B.cokerelli nymphs” value (Bactericera cockerelli; 18-Aug., listed as T4) was 0.25. For the same molecule, the “Average of registered B.cokerelli nymphs” value (Bactericera cockerelli; 19-Sep.) was 0, the “Zebra chip/purple top incidence control percentage” value ([2]; listed as 4) was 62.65% and the “Total production in Kilograms per parcel, Average” value (potato variety Caesar [3]; listed as 4) was 21.3 Kilograms per parcel. The “Production in Kilograms per treatment categories: Combined” value (potato variety Caesar [3]; listed as 4) was 37.7 Kilograms, the “Production in Kilograms per treatment categories: First” value (potato variety Caesar [3]; listed as 4) was 4 Kilograms and the “Production in Kilograms per treatment categories: Second” value (potato variety Caesar [3]; second quality category) was 7.8 Kilograms. The “Production in Kilograms per treatment categories: Third” value (potato variety Caesar [3]; listed as 4) was 35.7 Kilograms, the “tubercle staining Incidence Control Percentage” value ([4]; listed as 4) was 63.35% and the “tubercle staining Severity Control Percentage” value ([4]; listed as 4) was 74.50%. For the same molecule, the “Flake burning Incidence control percentage” value ([5]; listed as 4) was 54%.

From patent US20210251234A1 (priority 2015, published 2021)
